# Measurements from ChEMBL document CHEMBL3507680, “University of Dundee, Gates Library screen for HepG2 cell viability”.
# Test: Human HepG2 cell viability assay in 384 well format
# Format: toxicity, cell-based
# Parameters: dose 125 nL, time 70.5 hour; cytotoxicity at 70.5 h: concentration not given beside the values
# Settings: HepG2 cells, read-out: Inhibition
row,SMILES,cytotoxicity at 70.5 h [%]
1,FC(F)(F)CCc1ccnc(N2CCN(CCc3ccncc3)CC2)n1,-6.22
2,CCC(C)N1CCc2c(C(=O)N(C)Cc3ccccn3)nn(C)c2C1 (stereo not drawn),-7.34
3,COc1ncccc1CN1Cc2nccn2CC(Cn2cccn2)C1 (stereo not drawn),-5.37
4,Cc1cccc(C(C(=O)NC(C)(C)CN2CCOCC2)N(C)C)c1 (stereo not drawn),25.2
5,CCOCc1cncc2c1CCN(S(=O)(=O)c1ccccc1)C2,-3.1
6,CC(C)c1cnc(N2C[C@H](CO)C[C@H](CN3CCOCC3)C2)nc1,-4.2
7,CC(Cn1ccnc1)NC(=O)N1CCN(Cc2cccs2)CC1 (stereo not drawn),13.9
8,Cc1ccc(NC2CCN(C(=O)c3ccco3)CC2)nn1,11.9
9,Cc1cc(C(F)(F)F)c2c(C3CCCN(C(=O)C4CC4)C3)noc2n1 (stereo not drawn),-8.63
10,O=C(CCN1C(=O)CCC1=O)NCC1(c2c(F)cccc2F)CCCC1,-11.2
11,CNC(=O)[C@@H]1CC[C@@H]2[C@@H](CCN2Cc2ccccc2F)O1,-4.13
12,CC1COCCN1C(=O)COc1cccc(Oc2ccccn2)c1 (stereo not drawn),-9.57
13,COc1ccc(F)c(CN2CCCC(c3cc(O)nc(C)n3)C2)c1 (stereo not drawn),-3.96
14,CNc1nc(C(=O)N2CCC3(CCCN(C)C3=O)C2)cs1 (stereo not drawn),-4.39
15,CCCC(=O)N1CCC(c2cc3cccnc3c(O)n2)CC1,-5.85
16,O=C(NCc1ccc(C(=O)N2CCCC2)cc1)c1cn2c(n1)CNCC2,-3.69
17,Cc1ccccc1C(=O)N1CCN(c2ccc(-n3cncn3)nn2)CC1,-4.18
18,O=C(NCc1ccccc1)N1C[C@H]2C[C@H](C(=O)N3CCCC3)[C@@H](C1)O2,-5.41
19,CC(C)c1nccn1C(C)C(=O)N1CCN(S(C)(=O)=O)CC1 (stereo not drawn),-9.53
20,Cc1cc(CN2CCN(C(=O)C(C)C)[C@@H]3CS(=O)(=O)C[C@@H]32)ccc1F,-2.32
21,CC(C)COc1cccc(-c2nc3c([nH]2)CCNC3)c1,3.41
22,CN1CCN(Cc2cccnc2)Cc2cccnc21,-7.13
23,CN1CCC(NCC2(O)CCCN(Cc3ccccc3F)C2=O)CC1 (stereo not drawn),-4.92

row,SMILES,cytotoxicity at 70.5 h [%]
1,NC(CNS(=O)(=O)Cc1cccc2cccnc12)c1ccccc1 (stereo not drawn),28.4
2,O=C(c1cscn1)N(CCCO)S(=O)(=O)c1cccs1,0.658
3,C/C(=C\c1ccco1)CN(C)C(C)Cc1cc(C)ccn1 (stereo not drawn),-0.46
4,Cc1ccc(CC(=O)Nc2ccc(CS(C)(=O)=O)c(F)c2)cc1,-2.59
5,O=C(NCc1cccnc1)NCC(O)c1cccc(C(F)(F)F)c1 (stereo not drawn),-9.97
6,Cc1nc(C)n(CC2CCCN(CC(=O)Nc3cccnc3)C2)n1 (stereo not drawn),-0.663
7,COc1ccc(-c2nc(CN3CCc4cncnc4C3)no2)cc1,-3.32
8,Cn1nnnc1SC1CCN(c2ccccc2Cl)C1=O (stereo not drawn),-2.66
9,COc1cccc(S(=O)(=O)Cc2cc(C)on2)c1,-3.06
10,CN1CCN(Cc2cccnc2)C(=O)C12CCN(Cc1ccco1)CC2,-8.43
11,CCN(Cc1cccc(C(=O)Nc2cn(C)nn2)c1)[C@H]1COC[C@@H]1O,-5.22
12,Cc1ccc(C(=O)N2CCC3(CC2)CCN(CCN(C)C)C3=O)cn1,-8.77
13,COCC1CN(C(=O)C2=CCCC2)Cc2cnn(CC3CC3)c21 (stereo not drawn),-2.82
14,CN1C(=O)CC(C(=O)O)C12CCN(Cc1cc(F)ccc1Cl)CC2 (stereo not drawn),-9.93
15,Cc1ccc(C)c(S(=O)(=O)CCNC2CCc3ncnn3C2)c1 (stereo not drawn),-0.666
16,Cc1nn(C)c(N(C)C)c1CNCc1cnn(Cc2ccccc2)c1,-2.79
17,Cc1cnc2c(C(=O)N3CCCC(OCc4ccccn4)C3)cnn2c1 (stereo not drawn),-7.53
18,Cc1cc(Br)oc1C(=O)N1CCN(CC(N)=O)CC1,-1.55
19,Cc1cccc(-c2noc(CN3CCCC3Cn3cncn3)n2)c1 (stereo not drawn),-1.92
20,Cc1ccn(CCC(=O)NCCc2ccco2)n1,-3.53
21,Cc1ccc(NC2CCN(C(=O)CC3CCCO3)CC2)nn1 (stereo not drawn),-11.8
22,O=C(c1cccs1)N1CC[C@@H]2CN(C3CCOCC3)CCO[C@@H]2C1,-6.31
23,CC(=O)NC(C(=O)N(C)Cc1nnc2n1CCC2)C(C)C (stereo not drawn),22.2

row,SMILES,cytotoxicity at 70.5 h [%]
1,Cc1csc2c(C3CCCN(C(=O)CCn4ccnc4)C3)nc(C)n12 (stereo not drawn),17.3
2,Cn1cc(-c2cnc3n2CCC32CCN(S(C)(=O)=O)CC2)cn1,-0.823
3,CCCn1nnnc1CSc1nccn1Cc1ccccn1,-13.2
4,CC(NS(C)(=O)=O)C(=O)N(C)Cc1csc(-c2cccs2)n1 (stereo not drawn),-13.4
5,CCc1nccn1C1CCCN(C(=O)c2ccc3[nH]c(=O)[nH]c3c2)C1 (stereo not drawn),29
6,Cc1nn(C)c(C)c1CCC(=O)N1CCCC(n2cccn2)C1 (stereo not drawn),21.7
7,O=C(Cc1csc(N2CCNC2=O)n1)NC(c1ccccc1)C1CC1 (stereo not drawn),-3.72
8,CC(C(=O)N(C)Cc1ccc(Br)o1)n1cccn1 (stereo not drawn),-4.49
9,COCC(=O)NCCn1nc(-c2cc(C)oc2C)ccc1=O,-2.12
10,CCCN(Cc1cccnc1)Cc1ccc(C2CCCCO2)o1 (stereo not drawn),-2.3
11,N#Cc1ccnc(N2CCN(CC(O)c3ccccc3Cl)CC2)c1 (stereo not drawn),-0.0236
12,c1cnc(N2CCC3(COCCN(CC4CCOCC4)C3)C2)nc1 (stereo not drawn),3.27
13,O=C(Cc1ccsc1)N1CCC(c2noc(-c3cccnc3)n2)CC1,-2.37
14,COC(=O)C(NC(=O)c1ccco1)c1cc(F)ccc1F (stereo not drawn),-15.6
15,O=S(=O)(Cc1ccccc1F)N1CCCC1c1nnc2n1CCCCC2 (stereo not drawn),-6.25
16,CCc1ccc(CN(C)c2cc(COC)nc3ccnn23)cc1,-2.38
17,Cc1cc(C(=O)NCc2ccc(N3CCCC(C(N)=O)C3)cc2)no1 (stereo not drawn),-12.6
18,COCCN1CC2(CCCN(Cc3cc(=O)c(OC)co3)C2)CCC1=O (stereo not drawn),-8.24
19,CC(C)c1nc(CN2CCOCC2)cs1,7.98
20,Cc1ccccc1C(=O)N1CC[C@@H]2CN(c3ncccn3)CCO[C@@H]2C1,-10.9
21,O=c1cc(CN2CCC(CCc3ccc(O)cc3)CC2)[nH]c(=O)[nH]1,-6.15
22,Cc1ccc(NC2CCN(C(=O)c3ccc(Cl)cc3F)CC2)nn1,23.4
23,CCCC(=O)N1CCCC(C(=O)c2cnn(-c3ccc(F)cc3)c2N)C1 (stereo not drawn),-4.03

row,SMILES,cytotoxicity at 70.5 h [%]
1,O=C(NC[C@]12COC[C@H]1CN(Cc1nccs1)C2)c1ccccc1,-15
2,CCOc1cncc(N2CCCC2c2nnc3n2CCCCC3)n1 (stereo not drawn),-3.47
3,Cn1ccnc1CN1CCC2(CCCN2c2ncccn2)CC1,-0.454
4,CS(=O)(=O)CCCNC1(c2cccc(F)c2)CC1,-7.6
5,CCCS(=O)(=O)N1CCC2(CCC(=O)N(CCc3ccccc3)C2)CC1,-10.1
6,COC(C)(C)c1noc(C2(C#N)CCCC2)n1,-1.33
7,CCn1[nH]c(C)c2c(C(F)(F)F)cc(=O)nc1-2,-4.81
8,Cc1oncc1C(=O)N1CC[C@H]2[C@H]1CCN2Cc1ccccn1,-3.13
9,Cc1nccc(NCc2cncc3c2CCN(CC2CC2)C3)n1,9.03
10,Cc1cc(NC(=O)CN2CCCC2c2noc(C(C)C)n2)on1 (stereo not drawn),-14.1
11,CC1CN(C)CCN1C(=O)COc1cccc(Oc2ccccn2)c1 (stereo not drawn),18.2
12,COc1cccc(CC2CN(C3CCN(C(C)=O)CC3)CCO2)c1 (stereo not drawn),-5.79
13,CCCS(=O)(=O)N1CCC2(CN(c3ccsc3)C(=O)CN2C)C1 (stereo not drawn),-3.38
14,O=C1CCN(C(=O)CCc2ccc(Cl)cc2Cl)CCN1,-6.13
15,Cc1nc(Nc2nnc(C)s2)cc(C2CCCN2C(C)C)n1 (stereo not drawn),5.99
16,CCCN1C[C@H]2CC[C@@H]1CN(Cc1cccc(O)c1)C2,-9.57
17,CC(=O)NCCNC(=O)NCC1Cc2ccccc2O1 (stereo not drawn),-4.29
18,Cc1cc(NC(=O)[C@H]2CCCCN2C(=O)OC(C)(C)C)no1,-2.01
19,CN1CC(Oc2ccccc2)=NC(SCC(=O)c2ccccc2)=N1,-0.583
20,CN(Cc1ccccc1)C(=O)Cn1nc(N2CCSCC2)ccc1=O,-6.57
21,O=C(O)c1cnc(OCC2CC2)c(Cl)c1,-0.42
22,CCOc1ccnc(NCc2nc(C)cc(C(F)(F)F)n2)n1,-0.888
23,Cc1ncsc1C(=O)N(Cc1cccs1)C1CC1,-16.1

row,SMILES,cytotoxicity at 70.5 h [%]
1,COc1ccc(C(=O)NCc2ccon2)cc1F,-5.07
2,O=C(NCc1ccc2c(c1)CCCO2)c1ccccc1C1CCNC1 (stereo not drawn),-20.6
3,O=C(CO)N1CCC2(CC1)CC(=O)N(Cc1cc(F)cc(F)c1)C2,-1.76
4,Cc1cc(C[S+]([O-])CC(=O)NCC(C)C)no1 (stereo not drawn),-1.65
5,Fc1cccc(-c2c[nH]c(C3CCCN3)n2)c1 (stereo not drawn),0.492
6,O=C(c1cc(Cl)c2c(c1)OCO2)N1CCN(c2ncccn2)CC1,30.1
7,Cc1cc(C)nc(NC2CC(=O)N(C(C)(C)C)C2)n1 (stereo not drawn),7.77
8,CCCOCCN1CCc2[nH]c(-c3ccc(OC)cc3)nc2C1,-17
9,O=C(c1[nH]nc(C2CC2)c1Cl)N1CCCC1,3.72
10,COCCCNC1CCCN(c2ccc(C)nn2)C1 (stereo not drawn),-9.97
11,Cc1cc(NC(=O)NCC(O)c2ccc(F)cc2)n(C)n1 (stereo not drawn),-12.7
12,Cc1ccc(CN2C[C@@H](N(C)C)[C@H]3OCCC[C@H]32)o1,1.56
13,CCN1CCn2c(C)cnc2C12CCN(C(=O)CC(C)C)CC2,-2.3
14,C[C@@H]1CN(C(=O)c2cccc(F)c2)C[C@]12CCN(c1ccsc1)C2=O,-16.2
15,Cc1nc(C)n(CC2CCCN2c2ncnc3sc(C)c(C)c23)n1 (stereo not drawn),-3.31
16,CCC(NC(=O)Cn1ccc(=O)n(C)c1=O)c1ccc(OC)cc1 (stereo not drawn),-9.09
17,Cc1cccc(CN2C[C@@H]3CCCO[C@@H]3[C@H](Nc3ccccn3)C2)n1,1.63
18,Cc1csc(NC(=O)c2cnc(C3CCCN3)cn2)n1 (stereo not drawn),-13.1
19,COc1c(Br)c(CC2CC(CO)=NO2)c(Br)c2c1OCO2 (stereo not drawn),-7.56
20,CCn1cc(CN2CCN(CC(O)c3cc(C)ccc3C)CC2)c(C)n1 (stereo not drawn),-1.03
21,O=C1N(c2ccccc2)Cc2n[nH]c(=O)n21,-0.951
